Consider 36 compounds from patent publication US20030095958A1, “Inhibitors of bace” (priority 2001, published 2003).

In general, pKi refers to the Ki on a negative log10 scale, so that one unit is a factor of ten.

Each structure is given as a SMILES string. pKi: −log10 of the molar value.

BACE, sequence (P56817 46-501): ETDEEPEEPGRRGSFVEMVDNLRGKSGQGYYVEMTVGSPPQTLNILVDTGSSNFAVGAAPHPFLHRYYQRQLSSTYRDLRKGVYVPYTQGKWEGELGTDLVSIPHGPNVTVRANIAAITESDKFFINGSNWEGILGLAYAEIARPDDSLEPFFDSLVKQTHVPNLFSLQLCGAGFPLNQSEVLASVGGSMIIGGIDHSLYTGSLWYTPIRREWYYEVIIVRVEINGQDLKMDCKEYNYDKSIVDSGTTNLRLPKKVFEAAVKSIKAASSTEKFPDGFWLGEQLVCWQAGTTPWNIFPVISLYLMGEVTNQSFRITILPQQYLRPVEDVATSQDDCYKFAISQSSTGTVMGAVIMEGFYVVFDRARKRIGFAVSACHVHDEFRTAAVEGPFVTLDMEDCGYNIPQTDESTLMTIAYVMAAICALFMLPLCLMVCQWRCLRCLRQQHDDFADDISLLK

In this assay the target is BACE (Homo sapiens, UniProt P56817). Briefly: Ki Determination for the Inhibition of BACE (FS-1 peptide fluorescence cleavage assay). As to conditions: apparent Ki; 50 nM BACE, 10 μM FS-1 substrate, 0.1M sodium acetate pH 4.5. It is filed as biochemical. A digest of the protocol:
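Human BACE (50 nM) was preincubated 15 min at room temperature with compound (2% DMSO) in 0.1 M sodium acetate pH 4.5, then 10 μM FS-1 peptide was added. Cleavage was followed by fluorescence (ex 355/em 495 nm), and apparent Ki came from fitting to the integrated competitive tight-binding inhibition equation.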
Regarding `Oc1ccccc1-c1ccc(C2=CCNCC2)c(COc2ccccc2C(F)(F)F)c1` [Compound 362, 4′-(1,2,3,6-Tetrahydro-pyridin-4-yl)-3′-(2-trifluoromethyl-phenoxymethyl)-biphenyl-2-ol], the pKi is 4.52 to 5.52.
The result for `FC(F)(F)c1ccccc1OCc1cc(-c2ccoc2)ccc1C1=CCNCC1` [Compound 363, 4-[4-Furan-3-yl-2-(2-trifluoromethyl-phenoxymethyl)-phenyl]-1,2,3,6-tetrahydro-pyridine] reads 4.52 to 5.52; that for `CC(NC(=O)C1CNCCC1c1ccc(-c2ccccc2)cc1)c1cccc2ccccc12` (stereo not drawn) [Compound 405], 4.52 to 5.52; that for `CCOC(=O)c1c(C)[nH]c2ccc(OCc3ccc(COc4ccccc4C(F)(F)F)cc3C3=CCNCC3)cc12` [Compound 332, 2-Methyl-5-[2-(1,2,3,6-tetrahydro-pyridin-4-yl)-4-(2-trifluoromethyl-phenoxymethyl)-benzyloxy]-1H-indole-3-carboxylic acid ethyl ester], more than 5.52.
To `O=C(COCc1ccccc1)OCc1ccc(COc2ccccc2C(F)(F)F)cc1C1=CCNCC1` [Compound 315, Benzyloxy-acetic acid 2-(1,2,3,6-tetrahydro-pyridin-4-yl)-4-(2-trifluoromethyl-phenoxymethyl)-benzyl ester] belongs 4.52 to 5.52; to `O=C(Nc1cc(-c2ccc(Cl)c(Cl)c2)ccc1N1CCNCC1)c1cccc2ccccc12` [Compound 130, Naphthalene-1-carboxylic acid (3′,4′-dichloro-4-piperazin-1-yl-biphenyl-3-yl)-amide], more than 5.52.
Regarding `O=C(Nc1ccc2ccccc2c1)C1CNCCc2c1[nH]c1ccccc21` (stereo not drawn) [Compound 202, 1,2,3,4,5,6-Hexahydro-azepino[4,5-b]indole-5-carboxylic acid naphthalen-2-ylamide], the pKi was less than 4.52.
The result for `Cc1cc(N2CCNCC2)c(NC(=O)c2cccc3ccccc23)cc1-c1ccsc1` [Compound 155, Naphthalene-1-carboxylic acid (4-methyl-2-piperazin-1-yl-5-thiophen-3-yl-phenyl)-amide] reads 4.52 to 5.52; that for `O=C(Nc1cc(-c2ccc(C(F)(F)F)cc2F)ccc1N1CCNCC1)c1cccc2ccccc12` [Compound 161, Naphthalene-1-carboxylic acid (2′-fluoro-4-piperazin-1-yl-4′-trifluoromethyl-biphenyl-3-yl)-amide], 4.52 to 5.52; that for `Cc1c(COc2ccc3c(c2)c2c(n3Cc3cccc4ccccc34)CNCC2)cccc1C(F)(F)F` [Compound 521, 6-(2-Methyl-3-trifluoromethyl-benzyloxy)-9-naphthalen-1-ylmethyl-2,3,4,9-tetrahydro-1H-b-carboline], more than 5.52.
To `c1ccc(-c2ccc(C3CCNCC3OCc3ccc4ccccc4c3)cc2)cc1` (stereo not drawn) [Compound 401] belongs more than 5.52.
The result for `O=S(=O)(Nc1cc(C(F)(F)F)ccc1N1CCNCC1)c1ccc(-c2ccccc2)cc1` [Compound 137, Biphenyl-4-sulfonic acid (2-piperazin-1-yl-5-trifluoromethyl-phenyl)-amide] reads 4.52 to 5.52; that for `O=C(NCC1CNCCC1c1ccc(COc2ccccc2C(F)(F)F)cc1)Oc1cccc2ccccc12` (stereo not drawn) [Compound 229, {4-[4-(2-Trifluoromethyl-phenoxymethyl)-phenyl]-piperidin-3-ylmethyl}-carbamic acid naphthalen-1-yl ester], more than 5.52; that for `Nc1ccc(-c2cc(COc3ccccc3C(F)(F)F)c(C3=CCNCC3)cc2COc2ccccc2C(F)(F)F)cc1` [Compound 359, 4′-(1,2,3,6-Tetrahydro-pyridin-4-yl)-2′,5′-bis-(2-trifluoromethyl-phenoxymethyl)-biphenyl-4-ylamine], more than 5.52.
In the case of `O=C(OCc1ccc(COc2ccccc2C(F)(F)F)cc1C1=CCNCC1)c1ccc2c(c1)OCO2` [Compound 316, Benzo[1,3]dioxole-5-carboxylic acid 2-(1,2,3,6-tetrahydro-pyridin-4-yl)-4-(2-trifluoromethyl-phenoxymethyl)-benzyl ester], the pKi is 4.52 to 5.52.
As for `O=C(Nc1cc(C(F)(F)F)ccc1N1CCNCC1)c1ccc2cnccc2n1` [Compound 190, [1,6]Naphthyridine-2-carboxylic acid (2-piperazin-1-yl-5-trifluoromethyl-phenyl)-amide], the pKi is 4.52 to 5.52.
The result for `Oc1ccc(-c2ccc(C3=CCNCC3)c(COc3ccccc3C(F)(F)F)c2)cc1` [Compound 361, 4′-(1,2,3,6-Tetrahydro-pyridin-4-yl)-3′-(2-trifluoromethyl-phenoxymethyl)-biphenyl-4-ol] reads 4.52 to 5.52; that for `O=C(Nc1cc(-c2ccoc2)ccc1N1CCNCC1)c1cccc2ccccc12` [Compound 152, Naphthalene-1-carboxylic acid (5-furan-3-yl-2-piperazin-1-yl-phenyl)-amide], less than 4.52; that for `O=C(Nc1ccc2ccccc2c1)NC1CNCCC1c1ccc(-c2ccccc2)cc1` (stereo not drawn) [Compound 403], 4.52 to 5.52.
To `CCOC(=O)c1cc(Br)cc(NCc2ccc3ccccc3n2)c1N1CCNCC1` [Compound 188, 5-Bromo-2-piperazin-1-yl-3-[(quinolin-2-ylmethyl)-amino]-benzoic acid ethyl ester] belongs 4.52 to 5.52; to `FC(F)(F)c1ccccc1OCc1cc(-c2ccc3ccccc3c2)c(COc2ccccc2C(F)(F)F)cc1C1=CCNCC1` [Compound 339, 4-[4-Naphthalen-2-yl-2,5-bis-(2-trifluoromethyl-phenoxymethyl)-phenyl]-1,2,3,6-tetrahydro-pyridine], 4.52 to 5.52; to `FC(F)(F)c1ccccc1COc1ccc2c(c1)c1c(n2Cc2cccc3ccccc23)CNCC1` [Compound 505, 9-Naphthalen-1-ylmethyl-6-(2-trifluoromethyl-benzyloxy)-2,3,4,9-tetrahydro-1H-b-carboline], more than 5.52.
With `FC(F)(F)c1ccccc1OCc1cc(-c2ccoc2)c(COc2ccccc2C(F)(F)F)cc1C1=CCNCC1` [Compound 343, 4-[4-Furan-3-yl-2,5-bis-(2-trifluoromethyl-phenoxymethyl)-phenyl]-1,2,3,6-tetrahydro-pyridine], the pKi is more than 5.52.
Regarding `Nc1ccccc1-c1ccc(C2=CCNCC2)c(COc2ccccc2C(F)(F)F)c1` [Compound 376, 4′-(1,2,3,6-Tetrahydro-pyridin-4-yl)-3′-(2-trifluoromethyl-phenoxymethyl)-biphenyl-2-ylamine], the pKi was 4.52 to 5.52.
The result for `O=C(NCc1ccccc1OC(F)(F)F)C1CNCCC1c1ccc(COc2ccccc2C(F)(F)F)cc1` (stereo not drawn) [Compound 208, 4-[4-(2-Trifluoromethyl-phenoxymethyl)-phenyl]-piperidine-3-carboxylic acid 2-trifluoromethoxy-benzylamide] reads less than 4.52; that for `O=c1cc(-c2ccccc2)nc(C2CCNCC2)n1Cc1ccc2ccccc2c1` [Compound 218, 3-Naphthalen-2-ylmethyl-6-phenyl-2-piperidin-4-yl-3H-pyrimidin-4-one], 4.52 to 5.52.
The result for `FC(F)(F)c1ccccc1OCc1cc(-c2cccnc2)c(COc2ccccc2C(F)(F)F)cc1C1=CCNCC1` [Compound 340, 3-[4-(1,2,3,6-Tetrahydro-pyridin-4-yl)-2,5-bis-(2-trifluoromethyl-phenoxymethyl)-phenyl]-pyridine] reads more than 5.52; that for `O=Cc1cc(-c2ccc(N3CCNCC3)c(NC(=O)c3cccc4ccccc34)c2)ccc1F` [Compound 105, Naphthalene-1-carboxylic acid (4′-fluoro-3′-formyl-4-piperazin-1-yl-biphenyl-3-yl)-amide], 4.52 to 5.52; that for `O=C(Nc1cc(COc2ccccc2C(F)(F)F)ccc1N1CCNCC1)c1cccc2ccccc12` [Compound 125, Naphthalene-1-carboxylic acid [2-piperazin-1-yl-5-(2-trifluoromethyl-phenoxymethyl)-phenyl]-amide], 4.52 to 5.52.
The result for `FC(F)(F)c1ccccc1OCc1ccc(COc2ccc(-c3ccccc3)cc2)c(C2=CCNCC2)c1` [Compound 325, 4-[2-(Biphenyl-4-yloxymethyl)-5-(2-trifluoromethyl-phenoxymethyl)-phenyl]-1,2,3,6-tetrahydro-pyridine] reads more than 5.52.
On to `COC(=O)c1ccc(C(=O)OCc2ccc(COc3ccccc3C(F)(F)F)cc2C2=CCNCC2)cc1` [Compound 317, Terephthalic acid 1-methyl ester 4-[2-(1,2,3,6-tetrahydro-pyridin-4-yl)-4-(2-trifluoromethyl-phenoxymethyl)-benzyl] ester], for which the negative-log Ki (pKi) is 4.52 to 5.52.
The result for `O=C(Nc1cc(C(F)(F)F)ccc1N1CCNCC1)c1cccc2ccccc12` [Compound 114, Naphthalene-1-carboxylic acid (2-piperazin-1-yl-5-trifluoromethyl-phenyl)-amide] reads 4.52 to 5.52; that for `O=C(c1cccc2ccccc12)n1c2c(c3cc(OCc4ccc(OC(F)F)cc4)ccc31)CCNC2` [Compound 514, [6-(4-Difluoromethoxy-benzyloxy)-1,2,3,4-tetrahydro-b-carbolin-9-yl]-naphthalen-1-yl-methanone], more than 5.52.
The result for `O=C(Nc1cc(Br)c(COc2ccccc2C(F)(F)F)cc1N1CCNCC1)c1nccc2ccccc12` [Compound 183, Isoquinoline-1-carboxylic acid [5-bromo-2-piperazin-1-yl-4-(2-trifluoromethyl-phenoxymethyl)-phenyl]-amide] reads more than 5.52.
To `FC(F)(F)c1ccc(OCc2ccc(COc3ccccc3C(F)(F)F)cc2C2=CCNCC2)cc1` [Compound 323, 4-[5-(2-Trifluoromethyl-phenoxymethyl)-2-(4-trifluoromethyl-phenoxymethyl)-phenyl]-1,2,3,6-tetrahydro-pyridine] belongs more than 5.52; to `FC(F)(F)c1ccccc1OCc1cc(-c2ccccc2Cl)ccc1C1=CCNCC1` [Compound 373, 4-[2′-Chloro-3-(2-trifluoromethyl-phenoxymethyl)-biphenyl-4-yl]-1,2,3,6-tetrahydro-pyridine], more than 5.52.
